# In article PMC3969243, “A PIP5 Kinase Essential for Efficient Chemotactic Signaling” (Current Biology, 2014):
# Columns and labels:
# PikI [1] = target: T1, PikI (Dictyostelium discoideum, UniProt Q55GN6, T262E); conditions: product PI(4,5)P2; phosphomimetic
# T1 construct: gene DDB_G0267588
# PikI [2] = target: T2, PikI (Dictyostelium discoideum, UniProt Q55GN6); conditions: product PI(4,5)P2
# T2 construct: gene DDB_G0267588
# PikI [3] = target: T3, PikI (Dictyostelium discoideum, UniProt Q55GN6, T262A); conditions: product PI(4,5)P2
# T3 construct: gene DDB_G0267588
# T3 sequence (Q55GN6 whole entry T262A): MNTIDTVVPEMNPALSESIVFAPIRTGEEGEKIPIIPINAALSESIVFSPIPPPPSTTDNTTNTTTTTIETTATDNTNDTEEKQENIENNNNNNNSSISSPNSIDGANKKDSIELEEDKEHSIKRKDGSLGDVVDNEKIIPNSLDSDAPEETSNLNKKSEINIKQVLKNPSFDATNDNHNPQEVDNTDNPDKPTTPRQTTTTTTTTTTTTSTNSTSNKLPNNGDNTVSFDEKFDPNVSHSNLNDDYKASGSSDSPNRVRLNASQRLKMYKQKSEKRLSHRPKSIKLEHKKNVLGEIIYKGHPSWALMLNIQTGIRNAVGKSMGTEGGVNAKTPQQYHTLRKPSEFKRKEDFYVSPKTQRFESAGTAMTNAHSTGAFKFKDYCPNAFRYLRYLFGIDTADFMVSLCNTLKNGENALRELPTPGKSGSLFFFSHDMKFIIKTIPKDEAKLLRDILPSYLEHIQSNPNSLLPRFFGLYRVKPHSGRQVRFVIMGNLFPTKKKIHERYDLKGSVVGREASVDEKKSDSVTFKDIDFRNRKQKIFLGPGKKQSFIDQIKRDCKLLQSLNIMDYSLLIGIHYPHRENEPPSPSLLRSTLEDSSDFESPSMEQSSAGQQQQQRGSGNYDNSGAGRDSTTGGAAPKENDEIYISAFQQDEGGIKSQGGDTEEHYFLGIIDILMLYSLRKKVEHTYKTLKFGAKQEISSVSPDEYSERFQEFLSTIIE
# T1 sequence (Q55GN6 whole entry T262E): as the sequence (Q55GN6 whole entry T262A) above, with A262E counted along it
# T2 sequence (Q55GN6 whole entry): as the sequence (Q55GN6 whole entry T262A) above, with A262T counted along it
substance,measurement,setting,value
PI(4)P,Km,PikI [1],6.39 ± 3.69 µM
same,Km,PikI [2],5.74 ± 3.18 µM
same,Km,PikI [3],4.6 ± 2.87 µM
